This is an account of results in patent US4978663A, “5-(1-aminocyclohexyl)-2(1H)-pyridinone compounds which have pharmaceutical utility” (priority 1989, dated 1990).

The nature of assay [1]: 2-phenyl-1,4-benzoquinone-induced writhing test in mice (PQW), analgesic activity. In kind it is in vivo. For orientation: Writhing tests count abdominal constrictions after an irritant is injected.
A short description of assay [2]: Dark Avoidance Assay (reversal of scopolamine induced memory deficit). As to conditions: mice, s.c., retest after 24 hours. In kind it is in vivo. As to the method: In this assay mice are tested for their ability to remember an unpleasant stimulus for a period of 24 hours. A mouse is placed in a chamber that contains a dark compartment; a strong incadescent light drives it to the dark compartment, where an electric shock is administered through metal plates on the floor. The animal is removed from the testing apparatus and tested again, 24 hours later, for the ability to remember the electric shock.
If scopolamine, an anticholinergic that is known to cause memory impairment, is administered before an animal's initial exposure to the test chamber, the animal re-enters the dark compartment shortly after being placed in the test chamber 24 hours later.

With `CC(=O)NC1(c2ccc(=O)[nH]c2)CCCCC1` [N-[1-(1,6-Dihydro-6-oxo-3-pyridinyl)cyclohexyl]acetamide], the “Analgesic PQW, % Inhibition of Writhing at 20 mg/kg., s.c.” value (“Analgesic PQW, % Inhibition … s.c.” for short) in assay [1] came out at 58%.
Regarding `CCC(=O)O[C@](Cc1ccccc1)(c1ccccc1)[C@H](C)CN(C)C` [Propoxyphene, reference compound], in assay [1] (3.9 mg/kg, s.c.), the “Analgesic PQW, % Inhibition of Writhing” value is reported as 50%.
As to `O=C(NC1(c2ccc(=O)[nH]c2)CCCCC1)c1ccccc1` [N-[1-(1,6-Dihydro-6-oxo-3-pyridinyl)cyclohexyl]benzamide], the “Analgesic PQW, % Inhibition … s.c.” value in assay [1] was 72%.
With `CC1(C)CCC(N)(c2ccc(=O)[nH]c2)CC1.Cl` [5-(1-Amino-4,4-dimethylcyclohexyl)-2(1H)-pyridinone hydrochloride], the “Analgesic PQW, % Inhibition … s.c.” value in assay [1] stood at 62%. The “% of animals with scopolamine induced memory deficit reversal” value (“% of animals” below) in assay [2] (2.5 mg/kg) turned out to be 20%.
With `NC1(c2ccc(=O)n(CC#CCN3CCCC3)c2)CCCCC1` [5-(1-Aminocyclohexyl)-1-[4-(pyrrolidin-1-yl)-2-butynyl]-2(1H)-pyridinone], the “Analgesic PQW, % Inhibition … s.c.” value in assay [1] turned out to be 53%.
The same measure, in the same setting: as for `O=C(CN1CCC(C(=O)c2ccc(F)cc2)CC1)NC1(c2ccc(=O)[nH]c2)CCCCC1` [N-[1-(1,6-Dihydro-6-oxo-3-pyridinyl)cyclohexyl][4-(4-fluorobenzoyl)]-1-piperidineacetamide], the figure is 77%.
For `CC(=O)NC1(c2ccc(=O)n(C)c2)CCC(C(C)(C)C)CC1` (stereo not drawn) [cis-N-[1-(1,6-Dihydro-1-methyl-6-oxo-3-pyridinyl)-4-(1,1-dimethylethyl)cyclohexyl]acetamide], the “Analgesic PQW, % Inhibition … s.c.” value in assay [1] was found to be 47%. For the same molecule, the “% of animals” value in assay [2] (1.3 mg/kg) came out at 33%.
On to `Cl.NC1(c2ccc(=O)n(Cc3ccccc3)c2)CCCCC1` [5-(1-Aminocyclohexyl)-1-(phenylmethyl)-2(1H)-pyridinone hydrochloride], for which the “Analgesic PQW, % Inhibition … s.c.” value in assay [1] stood at 42%. Further, in assay [2] (0.16 mg/kg), the “% of animals” value is reported as 20%.
As for `CC(=O)NC1(c2ccc(=O)n(C)c2)CCCCC1` [N-[1-(1,6-Dihydro-1-methyl-6-oxo-3-pyridinyl)cyclohexyl]acetamide], the “% of animals” value in assay [2] (0.63 mg/kg) was 33%.
Turning to `CNC(=O)Oc1ccc2c(c1)[C@]1(C)CCN(C)[C@@H]1N2C` [Physostigmine, reference compound], the “% of animals” value in assay [2] (0.31 mg/kg) is reported as 20%.
